# Test results: patent publication US20090131481A1, “Transcription Factor Modulating Compounds and Methods of Use Thereof” (Paratek Pharmaceuticals, Inc., published 2009)
# Like-named read-outs stand apart in the source and are kept apart here.
# Legend:
# [1] = molecular target: T1, SoxS (Escherichia coli, UniProt P0A9E2); test: Chemiluminescence-based SoxS-DNA binding assay; set-up: made in house; species or system E. coli; settings: for EC50: dose response analysis (footnote c), read-out: in vitro SoxS activity: concentration necessary to inhibit DNA-protein binding by 50% (EC50)
# T1 sequence (P0A9E2 1-107): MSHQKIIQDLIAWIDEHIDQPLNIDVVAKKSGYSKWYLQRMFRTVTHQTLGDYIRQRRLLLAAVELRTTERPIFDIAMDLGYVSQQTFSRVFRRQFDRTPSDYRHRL
# [2] = molecular target: LcrF (VirF) (Yersinia pestis, UniProt P28808); test: biochemical; type: binding, Y. pseudotuberculosis; settings: EC50 for inhibition of LcrF(VirF)-DNA binding
# [3] = molecular target: T2, ExsA (Pseudomonas aeruginosa, UniProt P26993); test: Chemiluminescence-based ExsA-DNA binding assay; set-up: species or system P. aeruginosa; settings: Table 7, cell-free system; read-out: ExsA EC50
# T2 construct: made in house
# T2 sequence (P26993 1-278): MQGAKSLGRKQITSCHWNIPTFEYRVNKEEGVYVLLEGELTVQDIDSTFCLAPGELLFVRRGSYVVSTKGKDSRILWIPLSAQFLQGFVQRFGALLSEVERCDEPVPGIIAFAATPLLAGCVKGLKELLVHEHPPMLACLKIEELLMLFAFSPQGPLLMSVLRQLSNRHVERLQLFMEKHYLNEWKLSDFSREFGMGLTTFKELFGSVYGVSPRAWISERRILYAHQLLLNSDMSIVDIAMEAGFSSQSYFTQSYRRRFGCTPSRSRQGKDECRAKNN
# [4] = tested on: P. aeruginosa; test: P. aeruginosa cytotoxicity whole cell assay (J774 cells, LDH release); settings: relative to vehicle treated cells infected with wild type P. aeruginosa
# [5] = tested on: Y. pseudotuberculosis; test: microbe, parasite or virus in culture; settings: Yersinia pseudotuberculosis, J774, read-out: % Cytotoxicity
# [6] = tested on: E. coli UPEC strain C189; test: Ascending pyelonephritis model of infection (Example 3); type: in vivo; settings: female CD1 mice, oral dosing at infection and once a day for 4 days, 5-day infection
# [7] = read-out: % Inhibition (SoxS binding to DNA)
# Chain of LcrF (VirF) (P28808 whole entry, looked up): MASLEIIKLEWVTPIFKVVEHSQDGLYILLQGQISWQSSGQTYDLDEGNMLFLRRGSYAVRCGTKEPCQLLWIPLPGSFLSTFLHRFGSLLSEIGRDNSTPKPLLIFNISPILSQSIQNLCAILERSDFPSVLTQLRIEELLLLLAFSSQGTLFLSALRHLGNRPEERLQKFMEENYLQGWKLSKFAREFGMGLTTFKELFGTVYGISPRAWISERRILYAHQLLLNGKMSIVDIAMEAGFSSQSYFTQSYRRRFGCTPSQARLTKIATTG
compound,measurement,setting,value
O=C(O)CCn1c(-c2ccccc2)nc2ccc([N+](=O)[O-])cc21 [AO],inhibition at 50 µg/mL,[1]; [7],< 0%
CCOC(=O)COn1c(-c2ccccc2)nc2ccc([N+](=O)[O-])cc21 [AP],inhibition at 50 µg/mL,[1]; [7],< 0%
O=C(O)COn1c(-c2ccccc2)nc2ccccc21 [AQ],inhibition at 50 µg/mL,[1]; [7],0 to 29%
CCCOn1c(-c2ccccc2)nc2ccc([N+](=O)[O-])cc21 [AR],inhibition at 50 µg/mL,[1]; [7],< 0%
O=[N+]([O-])c1ccc2nc(-c3ccccc3)n(OCCO)c2c1 [AS],inhibition at 50 µg/mL,[1]; [7],< 0%
On1c(-c2ccccc2)nc2ccccc21 [AT],inhibition at 50 µg/mL,[1]; [7],< 0%
COc1ccc(-c2nc3ccc([N+](=O)[O-])cc3n2O)cc1 [AV],inhibition at 50 µg/mL,[1]; [7],0 to 29%
CC(=O)c1ccc2nc(-c3ccccc3)n(O)c2c1 [AW],inhibition at 50 µg/mL,[1]; [7],30 to 69%
On1c(-c2ccccc2)nc2ccc(C(F)(F)F)cc21 [AX],inhibition at 50 µg/mL,[1]; [7],0 to 29%
On1c(-c2ccccc2)nc2ccc(F)cc21 [AY],inhibition at 50 µg/mL,[1]; [7],0 to 29%
COc1ccc2nc(-c3ccccc3)n(O)c2c1 [AZ],inhibition at 50 µg/mL,[1]; [7],< 0%
O=C(Nc1ccc(-c2nc3ccc([N+](=O)[O-])cc3n2O)cc1)c1ccccc1 [A],inhibition at 50 µg/mL,[1]; [7],> 70%
same,EC50,[2],10 to 25 µM
same,EC50,[3],10 to 25 µM
O=C(O)c1ccc2nc(-c3ccccc3)n(O)c2c1 [BA],inhibition at 50 µg/mL,[1]; [7],0 to 29%
N#Cc1ccc2nc(-c3ccccc3)n(O)c2c1 [BC],inhibition at 50 µg/mL,[1]; [7],30 to 69%
N#CCOn1c(-c2ccccc2)nc2ccc([N+](=O)[O-])cc21 [BD],inhibition at 50 µg/mL,[1]; [7],0 to 29%
NCCOn1c(-c2ccccc2)nc2ccc([N+](=O)[O-])cc21 [BE],inhibition at 50 µg/mL,[1]; [7],< 0%
CN(C)c1ccc2nc(-c3ccccc3)n(O)c2c1 [BF],inhibition at 50 µg/mL,[1]; [7],0 to 29%
O=[N+]([O-])c1ccc2nc(-c3ccc(O)cc3)n(O)c2c1 [BG],inhibition at 50 µg/mL,[1]; [7],30 to 69%
CC(C)(C)c1ccc2nc(-c3ccccc3)n(O)c2c1 [BH],inhibition at 50 µg/mL,[1]; [7],< 0%
CS(=O)(=O)c1ccc2nc(-c3ccccc3)n(O)c2c1 [BI],inhibition at 50 µg/mL,[1]; [7],30 to 69%
CC(=NO)c1ccc2nc(-c3ccccc3)n(O)c2c1 [BJ],inhibition at 50 µg/mL,[1]; [7],30 to 69%
Nc1ccc(-c2nc3ccc([N+](=O)[O-])cc3n2O)cc1 [BL],inhibition at 50 µg/mL,[1]; [7],> 70%
Nc1ccccc1-c1nc2ccc([N+](=O)[O-])cc2n1O [BN],inhibition at 50 µg/mL,[1]; [7],0 to 29%
Nc1cccc(-c2nc3ccc([N+](=O)[O-])cc3n2O)c1 [BO],inhibition at 50 µg/mL,[1]; [7],30 to 69%
same,inhibition at 50 µg/mL,[1]; read-out: in vitro SoxS activity: percent inhibition of DNA-protein binding,< 29%
COn1c(-c2ccccc2)nc2ccc([N+](=O)[O-])cc21 [BR],inhibition at 50 µg/mL,[1]; [7],0 to 29%
CC(=O)Nc1cccc(-c2nc3ccc([N+](=O)[O-])cc3n2O)c1 [BT],inhibition at 50 µg/mL,[1]; [7],30 to 69%
CN(C)c1cccc(-c2nc3ccc([N+](=O)[O-])cc3n2O)c1 [BV],inhibition at 50 µg/mL,[1]; [7],0 to 29%
O=[N+]([O-])c1ccc2nc(-c3ccc(Oc4ccccc4)cc3)n(O)c2c1 [BW],inhibition at 50 µg/mL,[1]; [7],0 to 29%
O=[N+]([O-])c1ccc2nc(-c3ccc(Br)cc3)n(O)c2c1 [CA],inhibition at 50 µg/mL,[1]; [7],0 to 29%
O=C(NCc1ccc(-c2nc3ccc([N+](=O)[O-])cc3n2O)cc1)c1ccccc1 [CD],inhibition at 50 µg/mL,[1]; [7],30 to 69%
O=C(Nc1ccc(-c2nc3ccc([N+](=O)[O-])cc3n2O)cc1)c1ccc(Cl)cc1 [CE],inhibition at 25 µg/mL,"[1]; compound screening concentration of 25 μg/ml (footnote d), read-out: in vitro SoxS activity: percent inhibition of DNA-protein binding",> 70%
O=C(Nc1ccc(-c2nc3ccc([N+](=O)[O-])cc3n2O)cc1)c1cccc(Cl)c1 [CG],EC50,[1],1 to 4.9 µM
CC(=O)Nc1ccc(-c2nc3ccc([N+](=O)[O-])cc3n2O)cc1 [CH],inhibition at 50 µg/mL,[1]; [7],> 70%
O=C(Nc1ccc(-c2nc3ccc([N+](=O)[O-])cc3n2O)c(F)c1)c1ccc(F)cc1 [DS],EC50,[2],10 to 25 µM
same,EC50,[3],10 to 25 µM
same,Cytotoxicity at 50 μg/mL Pseudomonas,[4],"* (reduced P. aeruginosa cytotoxicity to 99-75% of untreated, wild type levels at 50 mg/mL)"
same,activity at 50 µg/mL,[5],< 75%
COc1cc(NC(=O)c2ccc(F)cc2)ccc1-c1nc2ccc([N+](=O)[O-])cc2n1O [DT],EC50,[2],> 25 µM
same,EC50,[3],10 to 25 µM
same,Cytotoxicity at 50 μg/mL Pseudomonas,[4],"* (reduced P. aeruginosa cytotoxicity to 99-75% of untreated, wild type levels at 50 mg/mL)"
same,activity at 50 µg/mL,[5],< 75%
O=C(Nc1ccc(-c2nc3ccc([N+](=O)[O-])cc3n2O)cn1)c1ccc(F)cc1 [DU],EC50,[2],10 to 25 µM
same,EC50,[3],10 to 25 µM
same,Cytotoxicity at 50 μg/mL Pseudomonas,[4],"* (reduced P. aeruginosa cytotoxicity to 99-75% of untreated, wild type levels at 50 mg/mL)"
same,activity at 50 µg/mL,[5],< 75%
O=C(/C=C/c1ccc(F)c(CP(=O)(O)O)c1)Nc1ccc(-c2nc3ccc([N+](=O)[O-])cc3n2O)cc1 [DX],EC50,[2],10 to 25 µM
same,EC50,[3],10 to 25 µM
same,Cytotoxicity at 50 μg/mL Pseudomonas,[4],"* (reduced P. aeruginosa cytotoxicity to 99-75% of untreated, wild type levels at 50 mg/mL)"
same,activity at 50 µg/mL,[5],< 75%
Cc1ccc(C(=O)Nc2ccc(-c3nc4ccc([N+](=O)[O-])cc4n3O)cc2)cc1 [D],EC50,[1],1 to 4.9 µM
same,EC50,[2],10 to 25 µM
same,EC50,[3],< 10 µM
same,activity at 50 µg/mL,[5],< 75%
"CCOP(=O)(COn1c(-c2ccc(NC(=O)/C=C/c3ccc(F)cc3)cc2)nc2ccc([N+](=O)[O-])cc21)OCC [ED, (2-{4-[(E)-3-(4-Fluoro-phenyl)-acrloylamino]-phenyl}-6-nitro-benzoimidazol-1-yloxymethyl)-phosphonic acid diethyl ester]",EC50,[2],> 25 µM
same,EC50,[3],< 10 µM
same,Cytotoxicity at 50 μg/mL Pseudomonas,[4],"* (reduced P. aeruginosa cytotoxicity to 99-75% of untreated, wild type levels at 50 mg/mL)"
same,activity at 50 µg/mL,[5],< 75%
"O=C(/C=C/c1ccc(F)cc1)Nc1ccc(-c2nc3ccc([N+](=O)[O-])cc3n2O)cc1F [EL, (E)-N-[2-Fluoro-4-(1-hydroxy-6-nitro-1H-benzoimidazol-2-yl)-phenyl]-3-(4-fluoro-phenyl)-acrylamide]",EC50,[2],10 to 25 µM
same,EC50,[3],10 to 25 µM
same,Cytotoxicity at 50 μg/mL Pseudomonas,[4],"* (reduced P. aeruginosa cytotoxicity to 99-75% of untreated, wild type levels at 50 mg/mL)"
same,activity at 50 µg/mL,[5],< 75%
COc1cc(NC(=O)c2ccc(C(C)=O)cc2)ccc1-c1nc2ccc([N+](=O)[O-])cc2n1O [ES],EC50,[2],> 25 µM
same,EC50,[3],10 to 25 µM
same,Cytotoxicity at 50 μg/mL Pseudomonas,[4],"** (reduced P. aeruginosa cytotoxicity below 75% of untreated, wild type levels at 50 mg/mL)"
same,activity at 50 µg/mL,[5],< 75%
COc1cc(NC(=O)/C=C/c2ccc(F)cc2)ccc1-c1nc2ccc([N+](=O)[O-])cc2n1O [ET],EC50,[2],10 to 25 µM
same,EC50,[3],10 to 25 µM
same,Cytotoxicity at 50 μg/mL Pseudomonas,[4],"* (reduced P. aeruginosa cytotoxicity to 99-75% of untreated, wild type levels at 50 mg/mL)"
same,activity at 50 µg/mL,[5],< 75%
O=C(Nc1ccc(-c2nc3ccc([N+](=O)[O-])cc3n2O)cc1)C1=Cc2ccccc2OC1 [EY],EC50,[2],10 to 25 µM
same,EC50,[3],10 to 25 µM
same,Cytotoxicity at 50 μg/mL Pseudomonas,[4],"* (reduced P. aeruginosa cytotoxicity to 99-75% of untreated, wild type levels at 50 mg/mL)"
same,activity at 50 µg/mL,[5],< 75%
"CN(C)c1cc2nc(-c3ccc(NC(=O)/C=C/c4ccc(F)cc4)cc3)n(O)c2cc1[N+](=O)[O-] [EZ, N-[4-(5-Dimethylamino-1-hydroxy-6-nitro-1H-benzoimidazol-2-yl)-phenyl]-3-(4-fluorocinnamyl)-amide]",EC50,[2],> 25 µM
same,EC50,[3],10 to 25 µM
same,Cytotoxicity at 50 μg/mL Pseudomonas,[4],"** (reduced P. aeruginosa cytotoxicity below 75% of untreated, wild type levels at 50 mg/mL)"
same,activity at 50 µg/mL,[5],75 to 99%
N#Cc1ccc(C(=O)Nc2ccc(-c3nc4ccc([N+](=O)O)cc4n3O)cc2)cc1 [E],Efficacy (log10 decrease in the CFU/g kidney tissue),[6],** (exhibited a 1.1-2.0 log decrease in CFU/g)
same,EC50,[2],10 to 25 µM
same,EC50,[3],10 to 25 µM
same,activity at 50 µg/mL,[5],< 75%
O=[N+]([O-])c1ccc2nc(-c3ccccc3)n(O)c2c1 [GB],inhibition at 50 µg/mL,[1]; [7],30 to 69%
